Laboratory results published in patent US11439619B2, “Phosphaplatin compounds as immuno-modulatory agents and therapeutic uses thereof” (Phosplatin Therapeutics Inc., priority 2017, dated 2022).

Columns and labels:
CXF280 colon PDX = CXF280 colon PDX model; format: in vivo
[1] = system: HCT116 colorectal cancer cell line; assay: HMGB1 release from HCT116 cells, ELISA; format: cell-based; settings: HCT116, IC50 concentrations, 48 hours
Procedure: FIG. 1 illustrates the release of high mobility group box 1 (HMGB1) from cells treated with PT-112. HMGB1 in the media of cells after 48 hours of drug treatment was measured via ELISA. HMGB1 release is involved in ICD and antigen presentation to dendritic cells. Error bars indicate 1 SEM, and p values were generated using two-tailed t-tests.
(§1) Two such DAMPs are high mobility group box 1 (HMGB1) and calreticulin (CRT). HMGB1 is released from dying cells during ICD, whereas CRT migrates from the endoplasmic reticulum to the cell surface during ICD. To test if PT-112 exposure results in these events that are considered hallmarks of ICD, in vitro experiments using the HCT116 colorectal cancer cell line were conducted.
Subsequently, HMGB1 in the media of the cells was measured via ELISA.

[2] = system: HCT116 colon cancer model; assay: phosphorylation of H2AX and induction of Ku70 in HCT116 colon cancer model; format: cell-based; settings: versus oxali at equipotent concentrations
From the text: (§2) A high degree of correlation was observed between cis and carbo activity, but not between those agents and PT-112. A correlation between PT-112 and oxali was also observed, which led to investigation of cellular targets and mechanisms not shared by these two agents. […] These effects comprise the release of HMGB1 and ATP, the cell surface exposure of calreticulin (CRT), and the suppression of STATS.

[3] = renal function and tolerability in rats; format: in vivo
p53 and MDM2 = assay: impact on p53 and MDM2 levels; format: cell-based
From the text: as §2

[4] = system: HCT116 colorectal cancer cell line; assay: calreticulin (CRT) cell surface exposure in HCT116 cells, flow cytometry; format: cell-based; settings: HCT116, IC50 concentrations, 48 hours
Procedure: FIG. 2 illustrates the cell surface exposure of calreticulin (CRT) from cells treated with PT-112. CRT cell surface expression was measured via flow cytometry after 48 hours of drug treatment. A peak present to the right of the main peak indicates cells staining positive for CRT, a hallmark of ICD and an indicator of phagocyte targeting.
as §1
Cells were then stained with an anti-CRT antibody, and positive staining was detected via flow cytometry.

[5] = parameters: species or system rats; settings: rat, in vivo
From the text: Importantly, Pt in plasma, but not present in the PUF, is believed to be protein-bound and not bioavailable for therapeutic benefit.

CT26 cells = assay: FACS analysis of tumor tissue, CT26 allograft; format: in vivo, mice
From the text: (§3) FIG. 6 illustrates fluorescence-activated cell sorting (FACS) analysis of tumor biopsies from a mouse allograft experiment, whereby immune-competent mice were implanted with CT26 cells and were subsequently randomized into control, PT-112, anti-PD-L antibody, or combination treatment. Bars are normalized to the control group.
FIG. 7 illustrates the effect of various treatments on the ratios of different cell populations from tumor biopsies in a mouse allograft experiment using the CT26 cell line, where mice were randomized into vehicle control, PT-112, anti-PD-L antibody, and combination treatment groups. PT-112 treatment groups had large increases in the ratio of immunogenic to immunosuppressive cell types, indicating PT-112 induces a more immunogenic tumor microenvironment.
Additionally, tumor tissue was removed from additional treated mice and analyzed via FACS for differences in white blood cell populations.

[6] = system: nucleotide excision repair (NER)-deficient HCT116 cells and their isogenic NER-proficient counterparts; assay: potency in NER-deficient versus NER-proficient HCT116 cells; format: cell-based
From the text: as §2

[7] = system: immunogenic cell death (ICD); assay: effects indicative of ICD induction versus oxali; format: cell-based; settings: compared with oxali
From the text: as §2

[8] = system: GXF97 gastric patient-derived xenograft; assay: GXF97 gastric patient-derived xenograft (PDX) model; format: in vivo; settings: higher doses not tolerated by all mice, data not shown
[9] = chronic neuropathy indicators after repeat doses over 4 weeks (DRG Pt, NCV); format: in vivo
[10] = mouse model of acute neurotoxicity (cold hypersensitivity); format: in vivo; settings: single dose, PT-112 at twice the molar concentration of oxali
[11] = system: broadly platinum-resistant cell panel; assay: IC50 values in a broadly platinum-resistant cell panel; format: cell-based
From the text: as §2

MC38 cells = assay: FACS analysis of tumor tissue, MC38 allograft; format: in vivo, mice
From the text: as §3, with “8” for “6”, “MC38” for “CT26”, “anti-PD-L1” for “anti-PD-L”
FIG. 9 illustrates the effect of various treatments on the ratios of different cell populations from tumor biopsies in a mouse allograft experiment using the MC38 cell line, where mice were randomized into vehicle control, PT-112, anti-PD-L1 antibody, and combination treatment groups. […]
To better understand the effects of the different treatments on T cell populations, additional immuno-competent mice were implanted with MC38 cells and were subsequently randomized into control, PT-112, anti-PD-L1 antibody, or combination treatment arms (n=5). After 2 weeks of treatment (PT-112 @ 90 mg/kg QW and PD-L1 @ 10 mg/kg BIW), tumor tissue was removed and analyzed via FACS for differences in white blood cell populations. […]
Not all white blood cell populations are immunogenic. […] To better understand if the changes observed would have a net immunogenic or immunosuppressive effect, ratios of different cell populations were calculated (FIG. 9).

[12] = system: PANC1 pancreatic cancer model; assay: PANC1 pancreatic cancer model; format: in vivo
murine TSA cells = assay: ATP release from TSA cells, luminometric assay; format: cell-based; settings: 48 hours, two concentrations
Procedure: FIG. 3 illustrates the release of adenosine triphosphate (ATP) from cells treated with PT-112. ATP in the media of cells after 48 hours of drug treatment was measured via a luminometric assay. PT-112 was tested in two concentrations, as was cisplatin (a negative control for ICD), in addition to a single concentration of mitoxantrone (a positive ICD control) and an untreated negative control sample. ATP release is indicative of ICD and involved in recruitment and activation of antigen-presenting cells.
PT-112 was also tested for its ability to release the DAMP ATP (FIG. 3), which is involved in the recruitment and activation of antigen-presenting cells. Here, murine TSA cells were exposed to either PT-112 at two different concentrations, cisplatin (a negative control for ICD, also at two concentrations), mitoxantrone (a positive ICD control), or no drug control for 48 hours. Subsequently, ATP in the media was measured via a luminometric assay. […] This is again indicative of PT-112 robustly causing ICD.

cancer cell models = assay: Pt accumulation in DNA and whole cell extracts of cancer cell models; format: cell-based; settings: previous work; compared with cisplatin or oxaliplatin exposure
From the text: PT-112 is a new chemical entity under clinical development in the US and the People's Republic of China, designed to minimize particular toxicities associated with traditional platinum agents and drug resistance stemming from DNA damage and repair. As a pyrophosphate-conjugated Pt-containing anti-neoplastic therapeutic, PT-112 differs from platinum therapies in both mechanism and toxicity. […] Nonetheless, PT-112 has potent cytotoxic activity in in vitro systems, implying a different spectrum of targets for PT-112 in comparison to traditional platinum compounds. We explored the activity and mechanism of action of PT-112 by investigating impacts on cancer related proteins and pathways, including those connected to immunogenic cell death (ICD), as well as how PT-112 potency is affected by DNA repair pathways. In addition, PT-112 anticancer activity, pharmacokinetics (PK), and toxicity were measured in multiple in vivo systems.

[13] = data from the literature; cited from earlier work
live tumor cells = assay: vaccination experiment with live tumor cell challenge; format: in vivo, mice; settings: vaccine from agent-killed cells
Procedure: FIG. 4 illustrates the survival advantage conferred when different vaccines are given to mice before being challenged with a live tumor cell injection. Vaccines are composed of dead and dying cancer cells of the same cell line exposed to different anti-cancer agents, killed by exposure to different agents.
The “gold standard” for ICD validation is a vaccine experiment, where mice are injected with dead cell material generated by exposing cells to an anticancer agent. Importantly, the anti-cancer agent is removed, and the mice are only injected with the dead and dying cells. Subsequently, after 1-2 weeks, mice are then challenged with an injection of live tumor cells of the same type used to create the vaccine.
This vaccination experiment was conducted using four different treatment groups, one unvaccinated negative control, and three receiving vaccines from the use of different agents: cisplatin (a negative control, non-ICD inducer), mitoxantrone (a positive control ICD inducer), and PT-112 (the experimental arm) (FIG. 4). The vast majority of mice (80-90%) in both negative control groups developed tumors rapidly (within one week).

O=P1(O)OP(=O)(O)[O][Pt]2([NH][C@@H]3CCCC[C@H]3[NH]2)[O]1 (stereo partly drawn) [PT-112, trans-(R,R)-1,2-cyclohexanediamine(pyrophosphato) platinum(II)]
tumor growth (CXF280 colon PDX): Sustained tumor growth delay | HMGB1 release into the media [1]: significantly higher | effect on induction of Ku70 [2]: minimal effect | effect on the phosphorylation of H2AX [2]: minimal effect | tolerated concentration relative to cis ([3]; rats): 7 fold | effects on renal function (creatinine, BUN and GFR) ([3]; rats, PT-112 at 7-fold higher concentrations than cis): minimal effects | impact on p53 and MDM2 levels (p53 and MDM2): noteworthy impact | anti-CRT antibody staining (cell surface CRT) [4]: greater effect | fraction of Pt in the plasma ultrafiltrate (PUF) relative to total plasma Pt [5]: 72.8% | stability in plasma (parent by LC-MS/MS) [5]: stability of PT-112 in plasma | changes in cytotoxic T cell (CD8+) and helper T cell (CD4+) populations in tumor (CT26 cells): large changes | ratio of immunogenic to immunosuppressive T cell populations (CT26 cells): favorable changes | potency difference between NER-deficient and NER-proficient HCT116 cells [6]: did not differ significantly | effects indicative of ICD induction (release of HMGB1 and ATP, cell surface exposure of CRT, suppression of STATS) [7]: significantly greater extent than oxali | response at higher doses [8]: Cases of complete response were observed | accumulation of Pt in dorsal root ganglia (DRG) nerve tissue [9]: minimal accumulation | nerve conduction velocity (NCV) [9]: no significant loss | cold hypersensitivity [10]: indistinguishable from untreated controls | IC50 values compared with cis, carbo and oxali [11]: superior to cis, carboplatin (carbo), and oxali in a majority of cell lines | changes in white blood cell populations incl. cytotoxic T cells (CD8+) and helper T cells (CD4+) in tumor (MC38 cells; MC38, 2 weeks, PT-112 90 mg/kg QW, PD-L1 10 mg/kg BIW, FACS): large changes | ratios of helper T cells and cytotoxic T cells to regulatory T cells (MC38 cells; MC38, FACS): positive effects | tumor growth [12]: Sustained tumor growth delay | release of ATP into the media (murine TSA cells): robust release of ATP | Pt accumulation in DNA and whole cell extracts (cancer cell models): significantly less Pt accumulation

O=C1[O][Pt]2([NH][C@@H]3CCCC[C@H]3[NH]2)[O]C1=O [oxaliplatin, reference compound]
HMGB1 release into the media [1]: elevated levels of HMGB1 in the media versus untreated control cells | anti-CRT antibody staining (cell surface CRT) [4]: enhanced staining relative to control | nerve conduction velocity (NCV) [9]: dose-dependent declines | fraction of Pt in the plasma ultrafiltrate (PUF) [13]: 28.2%

N.N.[Cl][Pt][Cl] [cisplatin, reference compound]
effects on renal function (creatinine, BUN and GFR) ([3]; rat, in vivo): caused morbidity | potency difference between NER-deficient and NER-proficient HCT116 cells [6]: NER-competent cells were less sensitive | mice that developed tumors (live tumor cells; within one week): 80-90%

O=C1c2c(O)ccc(O)c2C(=O)c2c(NCCNCCO)ccc(NCCNCCO)c21 [mitoxantrone]
mice remaining tumor free (live tumor cells; PT-112 group for over one month): 40%
